# Like-named read-outs stand apart in the source and are kept apart here.
# Key:
# [1] = Plasma protein binding, mouse plasma; assay type: in vitro ADME; conditions: mouse, plasma
# [2] = Kinetic solubility in PBS; assay type: physicochemical; conditions: phosphate-buffered saline, pH 7.4, aqueous buffer, kinetic from dmso stock
# In short: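 Echo-MS quantitation with calibration from 0.05 to 4 μM, after 1:99 dilution of filtrate into 50% acetonitrile. Filtrate came from a 100 μM PBS (pH 7.4) solution equilibrated 2 h at room temperature with shaking, in duplicate.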
# hERG potassium channel = hERG potassium channel (Homo sapiens, UniProt Q12809); experiment: hERG inhibition assay (thallium flux, HEK293-hERG cells); assay type: cell-based; conditions: for inhibition of hERG: at 100 μM
# Procedure: The study was performed by Bienta (Enamine Biology Services). HEK293-hERG cells (stably expressing human potassium channel hERG – human Ether-a-go-go Related Gene) were cultured in DMEM/F-12 medium supplemented with 10% FBS, 100 U/mL penicillin, 100 μg/mL streptomycin, and 500 μg/mL G418. The assay was performed according to the manufacturer’s instructions. Cells were seeded into a 384-well poly-D-lysine, clear-bottom microtiter plate (8000 cells/well) in DMEM/F-12 medium supplemented with 5% FBS, 100 U/mL penicillin, 100 μg/mL streptomycin 24 h prior to assay. After 24 h of cell growth, the conditioned medium was substituted with the Dye Loading Solution comprising thallium-sensitive dye, followed by incubation for 1 h in a CO2 incubator. After the incubation, the Dye Loading Solution was substituted with a 15 μL/well mixture of the Assay Buffer and the TRS. Then, 5 μL of the test compound diluted in the assay buffer (0.5% DMSO final concentration) was added to each well of the plate and incubated at room temperature for 30 min hERG inhibition by test compounds was assessed at 3 concentrations of 10–50–100 μM. All test points were performed in quadruplicates. […] DMSO was used as a negative control, and Haloperidol was used as a reference compound to verify the assay validity. Haloperidol was dissolved in 100% DMSO at a concentration of 20 mM and stored at – 20 °C (for no more than a month). Haloperidol was assessed at the final concentrations ranging from 0.023 μM to 50.0 μM (8 points, 3-fold serial dilutions). The test compounds were dissolved in 100% DMSO at a concentration of 20 mM.
# [3] = Plasma protein binding, equilibrium dialysis, human plasma; assay type: in vitro ADME; conditions: undiluted plasma
# [4] = system: panel of CYP isoforms (1A2, 2C9, 2C19, 2D6, and 3A4); experiment: CYP450 inhibition, panel statement; assay type: biochemical, human; conditions: up to 50 μM
# Procedure: The study was performed by Bienta (Enamine Biology Services). The potential for CYP450 inhibition (isoforms 1A2, 2C9, 2C19, 2D6, and 3A4) was assessed by performing in vitro inhibition studies using fluorogenic CYP450 substrates with the corresponding CYP450 enzymes and NADPH regeneration system (Vivid CYP450 Screening Kits) with some minor changes to the manufacturer’s protocols. The fluorescent signal produced from the reaction is directly proportional to the cytochrome P450 activity. In the cases when tested compounds interfere with the CYP450 enzyme–substrate reaction, the fluorescent signal decreases.
# Briefly, the tested compounds were first dissolved in DMSO at 100× concentration (1 mM) and diluted in buffer to 2.5× concentration (25 μM). […] After 10 min of preincubation, the enzymatic reaction was initiated by the addition of a mix of NADPH and the appropriate CYP450 substrates. The plate was incubated for the desired reaction time (25 min for CYP1A2, CYP2C9, CYP2D6, and CYP3A4; 60 min for CYP2C19) after which Stop Reagent was added and fluorescence measured using SpectraMax Paradigm Multi-Mode Microplate Reader. All test points were performed in quadruplicates at a concentration of 10 μM (1% DMSO).
# in vitro [5] = conditions: mouse, plasma
# in vitro [6] = conditions: human, plasma
# [7] = In vivo pharmacokinetic study, intravenous; design: species or system male CD-1 mice; conditions: for half-life / clearance: plasma, 1 mg/kg; for half-life: footnote: t1/2 stability in plasma, text: half-life in mouse PK; for unbound plasma exposure relative to mouse CD73 Ki: mouse PK, unbound via mouse PPB, all time points
# In short: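 Single intravenous dose in male CD-1 mice (n=3, 9 weeks, 29.2–33.7 g). Plasma levels measured by LC-MS/MS at 5, 15, 30, 60, 120, 240 and 480 min.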
# [8] = Microsomal stability assay, mouse liver microsomes; assay type: in vitro ADME; conditions: for microsomal CLint at 10 µM: pooled liver microsomes, pH 7.4, read-out: Mics (m) CLint; for Mics (m) comp remaining 60 min: 10 μM
# [9] = mouse plasma protein binding, read-out: PPB (m) (converted)
# [10] = Tables 1 and 3, human plasma as printed in footnote, read-out: fup, fraction unbound in human plasma
# [11] = human plasma protein binding, read-out: PPB (hu) (converted)
# [12] = male, CD-1, mouse, iv, intravenous
# [13] = Tables 2 and 4, mouse plasma, read-out: fup, fraction unbound in mouse plasma
# [14] = mouse, male CD-1 mice, intravenous, single dose, read-out: Cl (obs), observed clearance
# [15] = male, CD-1, mouse, intravenous, in vivo PK in mice, unit inferred, read-out: clearance
# Chain of hERG potassium channel (Q12809 whole entry): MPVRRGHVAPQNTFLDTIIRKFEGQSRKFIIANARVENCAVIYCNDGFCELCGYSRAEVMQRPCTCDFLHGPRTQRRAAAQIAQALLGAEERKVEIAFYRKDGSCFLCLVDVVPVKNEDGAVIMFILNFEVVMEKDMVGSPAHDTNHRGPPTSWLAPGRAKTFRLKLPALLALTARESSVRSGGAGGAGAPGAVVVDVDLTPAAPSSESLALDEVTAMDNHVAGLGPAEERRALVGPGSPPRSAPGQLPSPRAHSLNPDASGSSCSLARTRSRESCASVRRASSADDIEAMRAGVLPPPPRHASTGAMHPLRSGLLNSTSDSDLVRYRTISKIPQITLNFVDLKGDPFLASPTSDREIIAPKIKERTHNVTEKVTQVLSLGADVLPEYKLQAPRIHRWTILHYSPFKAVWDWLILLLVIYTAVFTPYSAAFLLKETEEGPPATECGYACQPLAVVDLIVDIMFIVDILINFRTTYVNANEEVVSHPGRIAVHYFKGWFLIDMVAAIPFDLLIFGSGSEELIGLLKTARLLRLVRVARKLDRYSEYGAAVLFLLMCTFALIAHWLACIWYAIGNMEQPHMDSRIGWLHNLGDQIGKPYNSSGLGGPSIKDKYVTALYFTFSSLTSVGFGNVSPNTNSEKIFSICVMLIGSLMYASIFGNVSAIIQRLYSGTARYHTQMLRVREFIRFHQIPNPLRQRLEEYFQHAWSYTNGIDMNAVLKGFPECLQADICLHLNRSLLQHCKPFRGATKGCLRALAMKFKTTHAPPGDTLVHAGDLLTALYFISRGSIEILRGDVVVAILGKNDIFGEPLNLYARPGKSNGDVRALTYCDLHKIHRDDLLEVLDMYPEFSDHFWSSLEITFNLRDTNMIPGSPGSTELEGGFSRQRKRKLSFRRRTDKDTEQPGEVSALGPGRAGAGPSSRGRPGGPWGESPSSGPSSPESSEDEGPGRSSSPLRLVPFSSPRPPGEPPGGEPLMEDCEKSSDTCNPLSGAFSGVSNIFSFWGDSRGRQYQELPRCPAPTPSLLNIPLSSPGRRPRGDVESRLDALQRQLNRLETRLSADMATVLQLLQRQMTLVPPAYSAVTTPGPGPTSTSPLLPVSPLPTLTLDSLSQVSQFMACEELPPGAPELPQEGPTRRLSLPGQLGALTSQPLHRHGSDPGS
"fraction unbound at 4 h, 100 µM [1, 9]",solubility at 2 h [2] [µM],"fraction unbound at 4 h, 100 µM [3, 10]","fraction unbound at 4 h, 100 µM [3, 11]",inhibition of a panel of CYP isoforms [4],half-life at 10 µM (in vitro [5]) [h],half-life at 10 µM (in vitro [6]) [h],"half-life [7, 12] [h]","clearance ([7]; male, CD-1, mouse, iv, in vivo PK in mice, unit inferred, read-out: clearance) [mL/min/kg]",microsomal CLint at 10 µM [8] [µL/min/mg],"fraction unbound at 4 h, 100 µM [1, 13]",Mics (m) comp remaining 60 min [8] [%],"clearance [7, 14] [mL/min/kg]",unbound plasma exposure relative to mouse CD73 Ki [7],"clearance [7, 15] [mL/min/kg]",SMILES,hERG % inhibition at 100 µM (hERG potassium channel) [%],inhibition of hERG (hERG potassium channel)
0.315,> 100,0.31,0.011,no inhibition,> 2,> 2,4.2,4.1,–,–,–,–,–,–,O=P(O)(O)CP(=O)(O)OC[C@H]1O[C@@H](n2ccc3c(-c4ccc5ccccc5c4)ncnc32)[C@H](O)[C@@H]1O [4A.7],1,no inhibition
0.727,56,–,0.195,no inhibition,> 2,> 2,–,–,< 1,–,–,–,–,–,O=P(O)(O)CP(=O)(O)OC[C@H]1O[C@@H](n2ccc3c(-c4cccc5ccncc45)ncnc32)[C@H](O)[C@@H]1O [4A.18],6,no inhibition
0.216,85,–,0.005,no inhibition,> 2,> 2,2.33,–,< 1,0.22,117,0.88,–,–,O=P(O)(O)CP(=O)(O)OC[C@H]1O[C@@H](n2ccc3c(-c4cccc5c4CCCC5)nc(Cl)nc32)[C@H](O)[C@@H]1O [7B.12],3,no inhibition
0.059,84,–,≤ 0.01,no inhibition,> 2,> 2,2.23,–,< 1,0.06,123,3,–,–,O=P(O)(O)CP(=O)(O)OC[C@H]1O[C@@H](n2ccc3c(-c4ccc5c(c4)CCCC5)nc(Cl)nc32)[C@H](O)[C@@H]1O [7B.23],5,no inhibition
0.232,> 100,–,≤ 0.01,no inhibition,> 2,> 2,1.8,–,< 2,0.23,101,1.7,well above,–,O=P(O)(O)CP(=O)(O)OC[C@H]1O[C@@H](n2ccc3c(-c4ccc(F)c5ccccc45)nc(Cl)nc32)[C@H](O)[C@@H]1O [7B.28],6,no inhibition
0.515,89,–,0.045,no inhibition,> 2,> 2,5.27,–,1,0.51,95,0.32,well above,0.32,Cc1nc(-c2cccc3ccccc23)c2ccn([C@@H]3O[C@H](COP(=O)(O)CP(=O)(O)O)[C@@H](O)[C@H]3O)c2n1 [18E.6],2,no inhibition
0.221,78,–,0.004,–,> 2,> 2,1.73,–,1,0.22,97,4.6,–,–,Cc1nc(-c2ccc3ccccc3c2)c2ccn([C@@H]3O[C@H](COP(=O)(O)CP(=O)(O)O)[C@@H](O)[C@H]3O)c2n1 [18E.7],–,–
0.036,> 100,0.036,≤ 0.01,no inhibition,> 2,> 2,3.08,–,2,–,–,3.1,–,3.1,"O=P(O)(O)CP(=O)(O)OC[C@H]1O[C@@H](n2ccc3c(-c4ccc5c(c4)CCCC5)nc(I)nc32)[C@H](O)[C@@H]1O [27H.23, [(5-{[2-Iodo-4-(5,6,7,8-tetrahydronaphthalen-2-yl)-7H-pyrrolo[2,3-d]pyrimidin-7-yl]-β-D-ribofuranosyl}oxy)phosphonomethyl]phosphonic Acid]",7,no inhibition
